ChEMBL document CHEMBL3734723, “Synthesis and anticancer activity of 6-heteroarylcoumarins” (2015)

Legend:
Type in all cases: functional
[1] = Growth inhibition of human HOP62 cells incubated for 48 hrs by sulforhodamine B assay; conditions: HOP-62, 48 h; for CC50: read-out: LC50 (the source's name)
[2] = system: NCI-H23; experiment: Growth inhibition of human NCI-H23 cells incubated for 48 hrs by sulforhodamine B assay; conditions: NCI-H23, 48 h; for CC50: read-out: LC50 (the source's name)
[3] = system: HT-29; experiment: Growth inhibition of human HT-29 cells incubated for 48 hrs by sulforhodamine B assay; conditions: HT-29, 48 h; for CC50: read-out: LC50 (the source's name)
[4] = Growth inhibition of human SF539 cells incubated for 48 hrs by sulforhodamine B assay; conditions: SF-539, 48 h; for CC50: read-out: LC50 (the source's name)
[5] = Growth inhibition of human LOXIMVI cells incubated for 48 hrs by sulforhodamine B assay; conditions: LOX IMVI; for CC50: read-out: LC50 (the source's name)
[6] = system: SK-MEL-2; experiment: Growth inhibition of human SK-MEL-2 cells incubated for 48 hrs by sulforhodamine B assay; conditions: SK-MEL-2, 48 h; for CC50: read-out: LC50 (the source's name)
[7] = system: SK-MEL-28; experiment: Growth inhibition of human SK-MEL-28 cells incubated for 48 hrs by sulforhodamine B assay; conditions: SK-MEL-28, 48 h; for CC50: read-out: LC50 (the source's name)
[8] = Growth inhibition of human UACC62 cells incubated for 48 hrs by sulforhodamine B assay; conditions: UACC-62, 48 h; for CC50: read-out: LC50 (the source's name)
[9] = Growth inhibition of human OVCAR3 cells incubated for 48 hrs by sulforhodamine B assay; conditions: OVCAR-3, 48 h; for CC50: read-out: LC50 (the source's name)
[10] = Growth inhibition of human OVCAR5 cells incubated for 48 hrs by sulforhodamine B assay; conditions: OVCAR-5, 48 h; for CC50: read-out: LC50 (the source's name)
[11] = Growth inhibition of human RXF393 cells incubated for 48 hrs by sulforhodamine B assay; conditions: RXF 393, 48 h; for CC50: read-out: LC50 (the source's name)
[12] = Growth inhibition of human PC3 cells incubated for 48 hrs by sulforhodamine B assay; conditions: PC-3, 48 h; for CC50: read-out: LC50 (the source's name)
[13] = Growth inhibition of human DU145 cells incubated for 48 hrs by sulforhodamine B assay; conditions: DU-145, 48 h; for CC50: read-out: LC50 (the source's name)
[14] = Growth inhibition of human colon cancer cells after 48 hrs by sulforhodamine B assay; conditions: Cancer cell lines; for CC50: read-out: LC50 (the source's name)
[15] = Cytotoxicity against human RPMI8226 cells assessed as cell growth at 10 uM incubated for 48 hrs by sulforhodamine B assay; conditions: RPMI-8226, 48 h, read-out: Activity
[16] = system: K562; experiment: Cytotoxicity against human K562 cells assessed as cell growth at 10 uM incubated for 48 hrs by sulforhodamine B assay; conditions: K562, 48 h, read-out: Activity
[17] = system: SR; experiment: Cytotoxicity against human SR cells assessed as cell growth at 10 uM incubated for 48 hrs by sulforhodamine B assay; conditions: read-out: Activity
[18] = Cytotoxicity against human UACC62 cells assessed as cell growth at 10 uM incubated for 48 hrs by sulforhodamine B assay; conditions: UACC-62, 48 h, read-out: Activity
[19] = system: SK-MEL-5; experiment: Cytotoxicity against human SK-MEL-5 cells assessed as cell growth at 10 uM incubated for 48 hrs by sulforhodamine B assay; conditions: SK-MEL-5, 48 h, read-out: Activity
[20] = Cytotoxicity against human UO31 cells assessed as cell growth at 10 uM incubated for 48 hrs by sulforhodamine B assay; conditions: UO-31, 48 h, read-out: Activity
[21] = system: NCI-H460; experiment: Cytotoxicity against human NCI-H460 cells assessed as cell growth at 10 uM incubated for 48 hrs by sulforhodamine B assay; conditions: NCI-H460, 48 h, read-out: Activity
[22] = system: A549; experiment: Cytotoxicity against human A549 cells assessed as cell growth at 10 uM incubated for 48 hrs by sulforhodamine B assay; conditions: A549, 48 h, read-out: Activity
[23] = system: NCI-H226; experiment: Cytotoxicity against human NCI-H226 cells assessed as cell growth at 10 uM incubated for 48 hrs by sulforhodamine B assay; conditions: NCI-H226, 48 h, read-out: Activity
[24] = system: NCI-H23; experiment: Cytotoxicity against human NCI-H23 cells assessed as cell growth at 10 uM incubated for 48 hrs by sulforhodamine B assay; conditions: NCI-H23, 48 h, read-out: Activity
[25] = Cytotoxicity against human HCT15 cells assessed as cell growth at 10 uM incubated for 48 hrs by sulforhodamine B assay; conditions: HCT-15, 48 h, read-out: Activity
[26] = Cytotoxicity against human SF295 cells assessed as cell growth at 10 uM incubated for 48 hrs by sulforhodamine B assay; conditions: SF-295, 48 h, read-out: Activity
[27] = system: U-251; experiment: Cytotoxicity against human U251 cells assessed as cell growth at 10 uM incubated for 48 hrs by sulforhodamine B assay; conditions: U-251, 48 h, read-out: Activity
[28] = Cytotoxicity against human SF539 cells assessed as cell growth at 10 uM incubated for 48 hrs by sulforhodamine B assay; conditions: SF-539, 48 h, read-out: Activity
[29] = system: Malme-3M; experiment: Cytotoxicity against human MALME-3M cells assessed as cell growth at 10 uM incubated for 48 hrs by sulforhodamine B assay; conditions: read-out: Activity
[30] = system: ACHN; experiment: Cytotoxicity against human ACHN cells assessed as cell growth at 10 uM incubated for 48 hrs by sulforhodamine B assay; conditions: read-out: Activity
[31] = Cytotoxicity against human RXF393 cells assessed as cell growth at 10 uM incubated for 48 hrs by sulforhodamine B assay; conditions: RXF 393, 48 h, read-out: Activity
[32] = system: T47D; experiment: Cytotoxicity against human T47D cells assessed as cell growth at 10 uM incubated for 48 hrs by sulforhodamine B assay; conditions: read-out: Activity
[33] = Cytotoxicity against human […] cells assessed as cell growth at 10 uM incubated for 48 hrs by sulforhodamine B assay; conditions: read-out: Activity
[34] = system: NCI-H322M; experiment: Cytotoxicity against human NCI-H322M cells assessed as cell growth at 10 uM incubated for 48 hrs by sulforhodamine B assay; conditions: read-out: Activity
[35] = Cytotoxicity against human OVCAR3 cells assessed as cell growth at 10 uM incubated for 48 hrs by sulforhodamine B assay; conditions: OVCAR-3, 48 h, read-out: Activity
[36] = Cytotoxicity against human SKOV3 cells assessed as cell growth at 10 uM incubated for 48 hrs by sulforhodamine B assay; conditions: SK-OV-3, 48 h, read-out: Activity

With `Cc1cc(=O)oc2c(C)c(O)c(-c3ccnc(N)n3)cc12` the GI50 [1] was 10.9 µM, the TGI [1] was over 100 µM and the CC50 [1] was over 100 µM. The GI50 [2] was 46 µM, the TGI [2] was over 100 µM and the CC50 [2] was over 100 µM. The GI50 [3] was 6.72 µM, the TGI [3] was over 100 µM and the CC50 [3] was over 100 µM. For the same compound, the GI50 [4] was 8.33 µM, the TGI [4] was over 100 µM and the CC50 [4] was over 100 µM. For the same compound, the GI50 [5] was 4.44 µM, the TGI [5] was over 100 µM and the CC50 [5] was over 100 µM. For the same compound, the GI50 [6] was 88.1 µM, the TGI [6] was over 100 µM and the CC50 [6] was over 100 µM. For the same compound, the GI50 [7] was over 100 µM, the TGI [7] was over 100 µM and the CC50 [7] was over 100 µM. The GI50 [8] was 17.2 µM, the TGI [8] was over 100 µM and the CC50 [8] was over 100 µM. It also gave a GI50 [9] of 37.7 µM, a TGI [9] of over 100 µM and a CC50 [9] of over 100 µM. For the same compound, the GI50 [10] was over 100 µM, the TGI [10] was over 100 µM and the CC50 [10] was over 100 µM. The GI50 [11] was 4.7 µM, the TGI [11] was 59.9 µM and the CC50 [11] was over 100 µM. For the same compound, the GI50 [12] was over 100 µM, the TGI [12] was over 100 µM and the CC50 [12] was over 100 µM. It also gave a GI50 [13] of over 100 µM, a TGI [13] of over 100 µM and a CC50 [13] of over 100 µM. For the same compound, the GI50 [14] was 32.7 µM, the TGI [14] was over 100 µM and the CC50 [14] was over 100 µM. For the same compound, the growth at 10 µM [15] was 30.5%, the growth at 10 µM [16] was 46.5% and the growth at 10 µM [17] was 9.17%. The growth at 10 µM [18] was 51.5%, the growth at 10 µM [19] was 38.5% and the growth at 10 µM [20] was 23%. For the same compound, the growth at 10 µM [21] was 19.8%, the growth at 10 µM [22] was 39.5% and the growth at 10 µM [23] was 52.3%. It also gave a growth at 10 µM [24] of 68.3%, a growth at 10 µM [25] of 50.4% and a growth at 10 µM [26] of 28.7%. It also gave a growth at 10 µM [27] of 56.3%, a growth at 10 µM [28] of 60.7% and a growth at 10 µM [29] of 66.9%. The growth at 10 µM [30] was 26.9%, the growth at 10 µM [31] was 55.7% and the growth at 10 µM [32] was 53.7%. For the same compound, the growth at 10 µM [33] was 40.4%.
With `Cc1cc(=O)oc2c(C)c(O)c(-c3cc4ccc(F)cc4[nH]3)cc12` the GI50 [1] was 2.98 µM, the TGI [1] was 15.9 µM and the CC50 [1] was 45.4 µM. It also gave a GI50 [2] of 2.07 µM, a TGI [2] of 8.99 µM and a CC50 [2] of 75.3 µM. It also gave a GI50 [3] of 10.2 µM, a TGI [3] of 23 µM and a CC50 [3] of 52 µM. For the same compound, the GI50 [4] was 2.94 µM, the TGI [4] was 14.1 µM and the CC50 [4] was 59.4 µM. The GI50 [5] was 2.51 µM, the TGI [5] was 10.6 µM and the CC50 [5] was 37.3 µM. For the same compound, the GI50 [6] was 3.12 µM, the TGI [6] was 7.34 µM and the CC50 [6] was 41.5 µM. The GI50 [7] was 4.58 µM, the TGI [7] was 18.3 µM and the CC50 [7] was 64.2 µM. It also gave a GI50 [8] of 2.19 µM, a TGI [8] of 13.2 µM and a CC50 [8] of 39.4 µM. For the same compound, the GI50 [9] was 2.28 µM, the TGI [9] was 7.02 µM and the CC50 [9] was 37.5 µM. It also gave a GI50 [10] of 3.34 µM, a TGI [10] of 16.7 µM and a CC50 [10] of 49.7 µM. The GI50 [11] was 3.91 µM, the TGI [11] was 14.7 µM and the CC50 [11] was 42.3 µM. It also gave a GI50 [12] of 2.64 µM, a TGI [12] of 10 µM and a CC50 [12] of over 100 µM. The GI50 [13] was 3.53 µM, the TGI [13] was 18.4 µM and the CC50 [13] was over 100 µM. For the same compound, the GI50 [14] was 5.38 µM, the TGI [14] was 16.2 µM and the CC50 [14] was 48.1 µM. The growth at 10 µM [15] was 8.76%, the growth at 10 µM [16] was 26.7% and the growth at 10 µM [17] was 28.4%. The growth at 10 µM [18] was 26%, the growth at 10 µM [19] was 8.97% and the growth at 10 µM [20] was 21.6%. For the same compound, the growth at 10 µM [21] was 28.4%, the growth at 10 µM [22] was 39.3% and the growth at 10 µM [24] was 10.2%. For the same compound, the growth at 10 µM [25] was 31.9%, the growth at 10 µM [26] was 33% and the growth at 10 µM [27] was 27.9%. The growth at 10 µM [28] was 47.3%, the growth at 10 µM [29] was 31.9% and the growth at 10 µM [30] was 27.6%. It also gave a growth at 10 µM [31] of 64.4%, a growth at 10 µM [32] of 27.2% and a growth at 10 µM [33] of 41.2%. For the same compound, the growth at 10 µM [34] was 53.4%, the growth at 10 µM [35] was 16.5% and the growth at 10 µM [36] was 47.1%.
